Assay results as given in US8586109B2, “Annatto extract compositions including tocotrienols and tocopherols and methods of use” (American River Nutrition, Inc., priority 2003, dated 2013).

Assays:
[1] = cited from earlier work
cholesterol = conditions: Pearce et al. 1992; cited from earlier work
IKBKAP = conditions: Anderson et al. 2003; cited from earlier work
essential hypertension = assay: Hypertension (Example 13); conditions: in vivo
Source text: Also, C-5 unsubstituted tocols (i.e., all delta and gamma isomers) had this effect.

[2] = system: spontaneous hypertensive rats (SHR); conditions: Newaz and Nawal 1999; cited from earlier work
C-reactive protein = conditions: higher dosage needed; cited from earlier work
[3] = some biologic systems; cited from earlier work

## CC(C)=CCC/C(C)=C/CC/C(C)=C/CC[C@]1(C)CCc2cc(O)cc(C)c2O1 [Delta-tocotrienol, delta-tocotrienol]
[1]; greater than alpha-T3
  Biologic activity relative to alpha-T3: 4-10 times
[1]; greater than gamma-T3
  Biologic activity relative to gamma-T3: 1-2 times
cholesterol
  isomeric potency of cholesterol reduction (relative): greater than gamma-T3
IKBKAP
  increase of IKBKAP gene transcription: 3.5 fold
Essential hypertension
  NOS activity: increased NOS activity
  essential hypertension: reduced essential hypertension

## CC(C)=CCC/C(C)=C/CC/C(C)=C/CC[C@]1(C)CCc2cc(O)c(C)c(C)c2O1 [Gamma-T3, gamma-tocotrienol]
cholesterol
  isomeric potency of cholesterol reduction (relative): five-fold greater than alpha-T3
[2]
  development of increased blood pressure: prevent the development of increased blood pressure
Essential hypertension
  NOS activity: increased NOS activity
  development of increased blood pressure: prevented the development of increased blood pressure
  essential hypertension: reduced essential hypertension

## Cc1c(C)c2c(c(C)c1O)CC[C@@](C)(CCC[C@H](C)CCC[C@H](C)CCCC(C)C)O2 [alpha-T1, Alpha-tocopherol]
C-reactive protein
  required dosage to lower CRP to a comparable range, relative to annatto tocotrienols: approximately 10 fold

## Alpha-tocotrienol
cholesterol
  isomeric potency of cholesterol reduction (relative): at least five-fold less active
[3]
  anti-oxidant power compared to alpha-T1: (40-60X in some biologic systems). First discovered to reduce cholesterol,
